Data reported in PubChem BioAssay (NCI).
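Briefly, cells in 96-well plates were exposed to five compound concentrations for 48 h, and endpoints were estimated by linear interpolation. GI50 is the concentration that inhibits growth by half. The concentration for full growth arrest is given as TGI.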

Assays:
Assay in all cases: inhibition of tumour cell growth, NCI panel, 48 h
NCI-H522 lung = tested on: NCI-H522 lung
HL-60(TB) leukemia = tested on: HL-60(TB) leukemia
OVCAR-3 ovarian = tested on: OVCAR-3 ovarian
SNB-19 CNS = tested on: SNB-19 CNS
NCI-H460 lung = tested on: NCI-H460 lung
IGROV1 ovarian = tested on: IGROV1 ovarian
COLO 205 colon = tested on: COLO 205 colon
UACC-257 melanoma = tested on: UACC-257 melanoma
U251 CNS = tested on: U251 CNS
HT29 colon = tested on: HT29 colon

Row | SMILES | TGI (NCI-H522 lung) [µM] | TGI (HL-60(TB) leukemia) [µM] | TGI (OVCAR-3 ovarian) [µM] | TGI (SNB-19 CNS) [µM] | TGI (NCI-H460 lung) [µM] | TGI (IGROV1 ovarian) [µM] | TGI (COLO 205 colon) [µM] | TGI (UACC-257 melanoma) [µM] | TGI (U251 CNS) [µM] | TGI (HT29 colon) [µM] | GI50 (NCI-H522 lung) [µM] | GI50 (HL-60(TB) leukemia) [µM] | GI50 (OVCAR-3 ovarian) [µM] | GI50 (SNB-19 CNS) [µM] | GI50 (NCI-H460 lung) [µM] | GI50 (IGROV1 ovarian) [µM] | GI50 (COLO 205 colon) [µM] | GI50 (UACC-257 melanoma) [µM] | GI50 (U251 CNS) [µM] | GI50 (HT29 colon) [µM]
1 | CC(CC(=O)Nc1ccc(NC(=O)CC(C)N=NC(N)=O)cc1)N=NC(N)=O (stereo not given) | > 100 | > 100 | > 100 | > 100 | > 100 | > 100 | > 100 | > 100 | > 100 | > 100 | – | – | – | – | – | – | – | – | – | –
2 | CNc1nc(-c2ccc3c(N)n[nH]c3c2)cc(N2C[C@@H](C(=O)NC3CCCCC3)CC[C@H]2C)n1 | 18.3 | 18.5 | 15.6 | 18 | 15.7 | 14.9 | 12 | 16.8 | 17.9 | 17.1 | 4.52 | 2.68 | 2.16 | 4.42 | 1.5 | 2.45 | 1.54 | 1.3 | 3.88 | 2.25
3 | CC1/C(=N/O)CC(c2ccccc2)N(N=O)C1c1ccccc1 (stereo not given) | > 100 | > 100 | > 100 | > 100 | > 100 | > 100 | > 100 | > 100 | > 100 | > 100 | – | – | – | – | – | – | – | – | – | –
4 | COC(=O)C(/C(=N\O)C(=O)Nc1ccc(Br)cc1)c1nc2ccccc2[nH]c1=O (stereo not given) | 32.5 | 55.3 | 50 | > 100 | > 100 | 71.4 | 37.5 | > 100 | > 100 | > 100 | – | – | – | – | – | – | – | – | – | –
5 | CC[C@@H](C(=O)[C@@H](C)[C@@H](O)[C@H](C)[C@@H]1O[C@@H]([C@@H](CC)C(=O)O)CC[C@@H]1C)[C@H]1O[C@]2(C=C[C@@H](O)[C@]3(CC[C@@](C)([C@H]4CC[C@](O)(CC)[C@H](C)O4)O3)O2)[C@H](C)C[C@@H]1C | 0.47 | 0.815 | 25.8 | 5.97 | 11.9 | > 84.7 | 11 | 6.79 | 8.91 | 15 | 0.0469 | 0.14 | 0.166 | 0.689 | 0.441 | 2.05 | 0.489 | 0.461 | 0.149 | 0.331
6 | Cc1nc2sc(C(=O)Nc3ccccc3)c(N)c2cc1C(=O)c1ccccc1 | 12.7 | 38.1 | 6.19 | > 50 | > 50 | > 50 | 7.55 | > 50 | > 50 | 9.54 | 1.54 | 0.0138 | 1.91 | 2 | 1.66 | 4.11 | 1.86 | 31.5 | 2.09 | 1.75
7 | CC1=CC(=O)N2C(OC[C@@H]2c2ccccc2)O1 (stereo not given in full) | > 100 | > 100 | > 100 | > 100 | > 100 | > 100 | > 100 | > 100 | > 100 | > 100 | – | – | – | – | – | – | – | – | – | –
